Here are results for 19 compounds from US12636290B2, “BET inhibitors for modulating DUX4 expression in FSHD” (Saint Louis University, priority 2018, dated 2026).

A word on the IC50: it is the concentration needed to halve the response being measured.

Read-outs that look alike come from different tables or passages of the source.

This assay deals with DUX4 expression (surrogate marker MBD3L2). The experiment in a line: Screening: qPCR analysis of DUX4 target gene MBD3L2 in differentiating MB200 FSHD2 muscle cells. The assay is classed as cell-based. The settings on record: Homo sapiens, 40 hours, DUX4 expression inferred from surrogate marker MBD3L2 expression (qPCR, normalized to RPL30). The method, then:
Cells and Cell Culture. Primary human myoblast cell lines, immortalized by retroviral transduction of cyclin-dependent kinase 4 (CDK4) and human telomerase reverse transcriptase (hTERT) (Stadler, et al., 2011), were obtained from the Fields Center at the University of Rochester (world-wide-web at urmc.rochester.edu/fields-center.aspx). Immortalized myoblasts were grown in Ham's F-10 Nutrient Mix (Gibco, Waltham, MA, USA) supplemented with 20% HyClone Fetal Bovine Serum (GE Healthcare Life Sciences, Pittsburgh, PA, USA), 100 U/100 μg penicillin/streptomycin (Gibco), 10 ng/ml recombinant human fibroblast growth factor (Promega Corporation, Madison, WI, USA) and 1 μM dexamethasone (Sigma-Aldrich). Differentiation of myoblasts into myotubes was achieved by switching the fully confluent myoblast monolayer into Dulbecco's Modified Eagle Medium (DMEM) (Gibco) containing 1% horse serum (Gibco), 100 U/100 μg penicillin/streptomycin, 10 μg/ml insulin (Sigma-Aldrich) and 10 μg/ml transferrin (Sigma-Aldrich) (HS/IT media) or DMEM:F12 Nutrient Mixture (1:1, Gibco) supplemented with 2% KnockOut Serum Replacement (Gibco), 100 U/100 μg penicillin/streptomycin, 10 μg/ml insulin and 10 μg/ml transferrin (KSR media) for 2-6 days.
Screening: qPCR analysis of DUX4 target genes MBD3L2. For screening compounds, differentiating MB200 FSHD2 muscle cells were exposed to BET inhibitors at a variety of concentrations for 40 hours to determine the effects of the drugs on DUX4 expression. Cell lysates were prepared using Cells-to-Ct Bulk Lysis Reagents (Invitrogen, Waltham, MA, USA). Gene expression was measured by quantitative polymerase chain reaction (qPCR) was carried out on a QuantStudio 5 (Applied Biosystems, Waltham, MA, USA) using TaqMan Gene Expression Assays (Applied Biosystems) and TaqMan Fast Virus 1-Step Master Mix (Invitrogen). The relative expression levels of DUX4 target gene methyl-CpG binding domain protein 3 like 2 (MBD3L2), was normalized to that of the reference gene ribosomal protein L30 (RPL30), which was included in multiplex (two gene) PCR reactions. TaqMan Gene Expression Assay ID numbers: MBD3L2, Hs00544743_m1; RPL30, Hs00265497_m1. Data is expressed as relative expression with the expression in absence of inhibitors set to one.
Analysis of MBD3L2 expression in cultured FSHD2 cells. DUX4 mRNA is present in very low levels, even in differentiating FSHD2 myoblasts, so DUX4 target gene MBD3L2 was used as a surrogate marker of DUX4 expression. FSHD2 patient derived muscle cells were analyzed to determine whether BET inhibitors affect MBD3L2 expression, indicating a reduction in DUX4 expression.
Background: Quantitative PCR measures a nucleic acid by following its amplification.

As to `C#CCN1CCN(CCOc2ccc(-c3ccc4cc(-c5cn(C)c(=O)c6[nH]ccc56)ccc4n3)cc2)CC1=O` [SLU-2281, 6-methyl-4-{2-[4-(2-(3-oxo-4-(prop-2-yn-1-yl)piperazin-1-yl)ethoxy)phenyl]quinolin-6-yl}-1H-pyrrolo[2,3-c]pyridin-7(6H)-one], the IC50 (read-out: DUX4* MT FSHD2: IC50) is 130 nM and the 50% inhibitory concentration (IC50) (read-out: DUX4* MT FSHD2 IC50) turned out to be 130 nM.

`CN1CCCN(CCOc2ccc(-c3ccc4cc(-c5cn(C)c(=O)c6[nH]ccc56)ccc4n3)cc2)CC1=O` [SLU-2300, 6-methyl-4-{2-[4-(2-(4-methyl-3-oxo-1,4-diazepan-1-yl)ethoxy)phenyl]quinolin-6-yl}-1H-pyrrolo[2,3-c]pyridin-7(6H)-one]: the IC50 by setting is: (read-out: DUX4* MT FSHD2: IC50) 49 nM; (read-out: DUX4* MT FSHD2 IC50) 49 nM.

Regarding `COc1ccc2cc(-c3cn(C)c(=O)c4[nH]ccc34)ccc2n1` [SLU-2294, 4-(2-methoxyquinolin-6-yl)-6-methyl-1H-pyrrolo[2,3-c]pyridin-7(6H)-one], the IC50 runs as follows: (read-out: DUX4* MT FSHD2: IC50) 59 nM; (read-out: DUX4* MT FSHD2 IC50) 59 nM.

In the case of `CN1CCN(CCOc2ccc(-c3ccc4nc(-c5cn(C)c(=O)c6[nH]ccc56)ccc4c3)cc2)C(C)(C)C1=O` [SLU-2280, 6-methyl-4-{6-[4-(2-(2,2,4-trimethyl-3-oxopiperazin-1-yl)ethoxy)phenyl]quinolin-2-yl}-1H-pyrrolo[2,3-c]pyridin-7(6H)-one], the IC50 reads like this: (read-out: DUX4* MT FSHD2: IC50) 120 nM; (read-out: DUX4* MT FSHD2 IC50) 120 nM.

Regarding `CN1CCN(CCOc2ccc(-c3ccc4cc(-c5cn(C)c(=O)c6[nH]ccc56)ccc4n3)cc2)CC1=O` [SLU-2244, 6-methyl-4-{2-[4-(2-(4-methyl-3-oxopiperazin-1-yl)ethoxy)phenyl]quinolin-6-yl}-1H-pyrrolo[2,3-c]pyridin-7(6H)-one], the half-inhibitory concentration (IC50) by setting is: (read-out: DUX4* MT FSHD2: IC50) 28 nM; (read-out: DUX4* MT FSHD2 IC50) 28 nM.

Consider `C[C@H]1CN(C)C(=O)CN1CCOc1ccc(-c2ccc3cc(-c4cn(C)c(=O)c5[nH]ccc45)ccc3n2)cc1` [SLU-2287, (S)-4-{2-[4-(2-(2,4-dimethyl-5-oxopiperazin-1-yl)ethoxy)phenyl]quinolin-6-yl}-6-methyl-1,6-dihydro-7H-pyrrolo[2,3-c]pyridin-7-one], for which the IC50 by setting is: (read-out: DUX4* MT FSHD2: IC50) 108 nM; (read-out: DUX4* MT FSHD2 IC50) 108 nM.

Turning to `Cn1cc(-c2ccc(N3CCC4(CCNC4)CC3)nc2)c2cc[nH]c2c1=O` [SLU-2120, 4-[6-(2,8-diazaspiro[4.5]decan-8-yl)pyridin-3-yl]-6-methyl-1H-pyrrolo[2,3-c]pyridin-7(6H)-one], the IC50 came to 350 nM (read-out: DUX4* MT FSHD2: IC50) and 350 nM (read-out: DUX4* MT FSHD2 IC50).

For `C[C@@H]1C(=O)N(C)CCN1CCOc1ccc(-c2ccc3cc(-c4cn(C)c(=O)c5[nH]ccc45)ccc3n2)cn1` [SLU-2240, (R)-4-{2-[6-(2-(2,4-dimethyl-3-oxopiperazin-1-yl)ethoxy)pyridin-3-yl]quinolin-6-yl}-6-methyl-1,6-dihydro-7H-pyrrolo[2,3-c]pyridin-7-one], the 50% inhibitory concentration (IC50) was 35 nM (read-out: DUX4* MT FSHD2: IC50) and 35 nM (read-out: DUX4* MT FSHD2 IC50).

Take `C[C@@H]1C(=O)N(C)CCN1CCOc1ccc(-c2ccc3cc(-c4cn(C)c(=O)c5[nH]ccc45)ncc3c2)cc1` [SLU-2219, (R)-4-{7-[4-(2-(2,4-dimethyl-3-oxopiperazin-1-yl)ethoxy)phenyl]isoquinolin-3-yl}-6-methyl-1H-pyrrolo[2,3-c]pyridin-7(6H)-one]: the IC50 is 95 nM (read-out: DUX4* MT FSHD2: IC50) and 95 nM (read-out: DUX4* MT FSHD2 IC50).

In the case of `C[C@@H]1C(=O)N(C)CCN1CCOc1ccc(C#Cc2ccc(-c3cn(C)c(=O)c4[nH]ccc34)cc2)cc1` [SLU-2226, (R)-4-{4-[(4-(2-(2,4-dimethyl-3-oxopiperazin-1-yl)ethoxy)phenyl)ethynyl]phenyl}-6-methyl-1H-pyrrolo[2,3-c]pyridin-7(6H)-one], the half-maximal inhibitory concentration (IC50) worked out at 47 nM (read-out: DUX4* MT FSHD2: IC50) and 47 nM (read-out: DUX4* MT FSHD2 IC50).

As to `C[C@@H]1C(=O)N(C)CCN1CCOc1ccc(C2CCN(c3ccc(-c4cn(C)c(=O)c5[nH]ccc45)cn3)CC2)cc1` [SLU-2089, (R)-4-{6-[4-(4-(2-(2,4-dimethyl-3-oxopiperazin-1-yl)ethoxy)phenyl)piperidin-1-yl]pyridin-3-yl}-6-methyl-1H-pyrrolo[2,3-c]pyridin-7(6H)-one], the concentration for half-maximal inhibition (IC50) reads like this: (read-out: DUX4* MT FSHD2: IC50) 4.8 nM; (read-out: DUX4* MT FSHD2 IC50) 4.8 nM.

`CN1CCN(CCOc2ccc(-c3ccc4cc(-c5cn(C)c(=O)c6[nH]ccc56)ccc4n3)cc2)C(C)(C)C1=O` [SLU-2241, 6-methyl-4-{2-[4-(2-(2,2,4-trimethyl-3-oxopiperazin-1-yl)ethoxy)phenyl]quinolin-6-yl}-1H-pyrrolo[2,3-c]pyridin-7(6H)-one]: the IC50 stood at 110 nM (read-out: DUX4* MT FSHD2: IC50) and 110 nM (read-out: DUX4* MT FSHD2 IC50).

As for `CCN1CCN(CCOc2ccc(-c3ccc4cc(-c5cn(C)c(=O)c6[nH]ccc56)ccc4n3)cc2)[C@H](C)C1=O` [SLU-2611, (R)-4-{2-[4-(2-(4-ethyl-2-methyl-3-oxopiperazin-1-yl)ethoxy)phenyl]quinolin-6-yl}-6-methyl-1H-pyrrolo[2,3-c]pyridin-7(6H)-one], the IC50 by setting is: (read-out: DUX4* MT FSHD2: IC50) 41 nM; (read-out: DUX4* MT FSHD2 IC50) 41 nM.

For the compound `C[C@@H]1C(=O)N(C)CCCN1CCOc1ccc(-c2ccc3cc(-c4cn(C)c(=O)c5[nH]ccc45)ccc3n2)cc1` [SLU-2284, (R)-4-{2-[4-(2-(2,4-dimethyl-3-oxo-1,4-diazepan-1-yl)ethoxy)phenyl]quinolin-6-yl}-6-methyl-1H-pyrrolo[2,3-c]pyridin-7(6H)-one], the IC50 is, setting by setting: (read-out: DUX4* MT FSHD2: IC50) 90 nM; (read-out: DUX4* MT FSHD2 IC50) 90 nM.

Consider `CC(C)CCOc1ccc(C2CCN(c3ccc(-c4cn(C)c(=O)c5[nH]ccc45)cn3)CC2)cc1` [SLU-2124, 4-{6-[4-(4-(isopentyloxy)phenyl)piperidin-1-yl]pyridin-3-yl}-6-methyl-1H-pyrrolo[2,3-c]pyridin-7(6H)-one], for which the IC50 by setting is: (read-out: DUX4* MT FSHD2: IC50) 1300 nM; (read-out: DUX4* MT FSHD2 IC50) 1300 nM.

Consider `C=CCn1cc(-c2ccc3nc(-c4ccc(OCCN5CCN(C)C(=O)[C@H]5C)cc4)ccc3c2)c2cc[nH]c2c1=O` [SLU-2293, (R)-6-allyl-4-{2-[4-(2-(2,4-dimethyl-3-oxopiperazin-1-yl)ethoxy)phenyl]quinolin-6-yl}-1H-pyrrolo[2,3-c]pyridin-7(6H)-one], for which the IC50 was determined as 18 nM (read-out: DUX4* MT FSHD2: IC50) and 18 nM (read-out: DUX4* MT FSHD2 IC50).

On to `C[C@@H]1C(=O)N(C)CCN1CCOc1ccc(-c2ccc3nc(-c4cn(C)c(=O)c5[nH]ccc45)ccc3c2)cn1` [SLU-2235, (R)-4-{6-[6-(2-(2,4-dimethyl-3-oxopiperazin-1-yl)ethoxy)pyridin-3-yl]quinolin-2-yl}-6-methyl-1H-pyrrolo[2,3-c]pyridin-7(6H)-one], for which the IC50 (read-out: DUX4* MT FSHD2: IC50) came out at 12 nM and the 50% inhibitory concentration (IC50) (read-out: DUX4* MT FSHD2 IC50) turned out to be 12 nM.

On to `C[C@@H]1CCC[C@H](C)N1CCOc1ccc(-c2ccc3cc(-c4cn(C)c(=O)c5[nH]ccc45)ccc3n2)cc1` [SLU-2233, 4-{2-[4-(2-((2R,6S)-2,6-dimethylpiperidin-1-yl)ethoxy)phenyl]quinolin-6-yl}-6-methyl-1H-pyrrolo[2,3-c]pyridin-7(6H)-one], for which the half-maximal inhibitory concentration (IC50) reads like this: (read-out: DUX4* MT FSHD2: IC50) 290 nM; (read-out: DUX4* MT FSHD2 IC50) 290 nM.

As for `C[C@@H]1C(=O)N(C)CCN1CCOc1ccc(C2CCN(c3ncc(-c4cn(C)c(=O)c5[nH]ccc45)cn3)CC2)cc1` [SLU-2091, (R)-4-{2-[4-(4-(2-(2,4-dimethyl-3-oxopiperazin-1-yl)ethoxy)phenyl)piperidin-1-yl]pyrimidin-5-yl}-6-methyl-1H-pyrrolo[2,3-c]pyridin-7(6H)-one], the IC50 was determined as 20 nM (read-out: DUX4* MT FSHD2: IC50) and 20 nM (read-out: DUX4* MT FSHD2 IC50).
